Data reported in ChEMBL document CHEMBL1124763, “Nucleoside conjugates. 11. Synthesis and antitumor activity of 1-beta-D-arabinofuranosylcytosine and cytidine conjugates of thioether lipids” (1990).

How the values were obtained:
[1] = test system: Mus musculus; test: Increase of life span was determined against Ip implanted L1210 / 0 lymphoid leukemia in mice at a dose of 200 mg/kg per day after treatment 1; type: functional; conditions: L1210/0, ip, route intraperitoneal
[2] = test system: Mus musculus; test: Survival time treated for antitumor activity against Ip implanted L1210 / 0 lymphoid leukemia in mice at a dose of 200 mg/kg per day after treatment 1,15;27.5/7; conditions: route intraperitoneal
[3] = test system: Mus musculus; test: Survival time of treated mice for antitumor activity against Ip implanted L1210 / 0 lymphoid leukemia in mice at a dose of 400 mg/kg per day after treatment 5;14.5/7; conditions: route intraperitoneal
[4] = test system: Mus musculus; test: Range of survival days for antitumor activity against Ip implanted L1210 / 0 lymphoid leukemia in mice at a dose of 200 mg/kg per day after treatment 1,8,15,22;range is 14->45; type: functional; conditions: route intraperitoneal
[5] = test system: Mus musculus; test: Increase of life span was determined against Ip implanted L1210 / 0 lymphoid leukemia in mice at a dose of 400 mg/kg per day; type: functional; conditions: L1210/0, ip, route intraperitoneal
[6] = test system: Mus musculus; test: Increase of life span was determined against Ip implanted L1210 / 0 lymphoid leukemia in mice at a dose of 300 mg/kg per day after treatment 1; type: functional; conditions: L1210/0, ip, route intraperitoneal
[7] = test system: Mus musculus; test: Increase of life span was determined against Ip implanted L1210 / 0 lymphoid leukemia in mice at a dose of 400 mg/kg per day after treatment 5; type: functional; conditions: L1210/0, ip, route intraperitoneal
[8] = test system: Mus musculus; test: Range of survival days for antitumor activity against Ip implanted L1210 / 0 lymphoid leukemia in mice at a dose of 200 mg/kg per day after treatment 1,15;range is 22-32; type: functional; conditions: route intraperitoneal
[9] = test system: Mus musculus; test: Range of survival days for antitumor activity against Ip implanted L1210 / 0 lymphoid leukemia in mice at a dose of 300 mg/kg per day after treatment 1,15;range is 21->45; type: functional; conditions: route intraperitoneal
[10] = test system: Mus musculus; test: Range of survival days for antitumor activity against Ip implanted L1210 / ara-C(I) lymphoid leukemia in mice at a dose of 80 mg/kg per day; type: functional; conditions: route intraperitoneal
[11] = test system: Mus musculus; test: Range of survival days for antitumor activity against Ip implanted L1210 / ara-C (I) lymphoid leukemia in mice at a dose of 400 mg/kg per day; type: functional; conditions: route intraperitoneal
[12] = test system: Mus musculus; test: Increase of life span was determined against Ip implanted L1210 / 0 lymphoid leukemia in mice at a dose of 400 mg/kg per day after treatment 2; type: functional; conditions: L1210/0, ip, route intraperitoneal
[13] = test system: Mus musculus; test: Increase of life span was determined against Ip implanted L1210 / 0 lymphoid leukemia in mice at a dose of 200 mg/kg per day after treatment 1,15; type: functional; conditions: L1210/0, ip, route intraperitoneal
[14] = test system: Mus musculus; test: Increase of life span was determined against Ip implanted L1210 / 0 lymphoid leukemia in mice at a dose of 100 mg/kg per day after treatment 1,8,15,22; type: functional; conditions: L1210/0, ip, route intraperitoneal
[15] = test system: Mus musculus; test: Survival time treated for antitumor activity against Ip implanted L1210 / 0 lymphoid leukemia in mice at a dose of 400 mg/kg per day;>42.5/7; conditions: route intraperitoneal
[16] = test system: Mus musculus; test: Range of survival days for antitumor activity against Ip implanted L1210 / 0 lymphoid leukemia in mice at a dose of 400 mg/kg per day after treatment -1;range is 12->45; type: functional; conditions: route intraperitoneal
[17] = test system: Mus musculus; test: Median survival time for antitumor activity against Ip implanted L1210 / 0 lymphoid leukemia in mice at a dose of 300 mg/kg per day after treatment 1,15; conditions: route intraperitoneal
[18] = test system: Mus musculus; test: Survival time of treated mice for antitumor activity against Ip implanted L1210 / 0 lymphoid leukemia in mice at a dose of 400 mg/kg per day after treatment 2;19.5/7; conditions: route intraperitoneal
[19] = test system: Mus musculus; test: Increase of life span was determined against Ip implanted L1210 / 0 lymphoid leukemia in mice at a dose of 60 mg/kg per day after treatment 1-5; type: functional; conditions: L1210/0, ip, route intraperitoneal
[20] = test system: Mus musculus; test: Median survival time for antitumor activity against Ip implanted L1210 / ara-C (I) lymphoid leukemia in mice at a dose of 400 mg/kg per day; conditions: route intraperitoneal

Compound CCCCCCCCCCCCCCCCCCSCC(COP(=O)(O)OP(=O)(O)OC[C@H]1O[C@@H](n2ccc(N)nc2=O)[C@@H](O)[C@@H]1O)OC(=O)CCCCCCCCCCCCCCC (mixture of isomers) has an ILS at 200 mg/kg/day [1] of 357%, a survival time [2] of 27.5 days and a survival time [3] of 14.5 days. The “Range of survival days” value [4] was over 14, the ILS at 400 mg/kg/day [5] was over 507% and the ILS at 300 mg/kg/day [6] was 371%. For the same compound, the ILS at 400 mg/kg/day [7] was 107%, the “Range of survival days” value [8] was 22 and the “Range of survival days” value [9] was over 21. It also gave a Range [10] of over 25, a Range [11] of over 45 and an ILS at 400 mg/kg/day [12] of 179%. The ILS at 200 mg/kg/day [13] was 293%, the ILS at 100 mg/kg/day [14] was 243% and the survival time [15] was over 42.5 days. The “Range of survival days” value [16] was over 12, the median survival time [17] was 24.5 days and the survival time [18] was 19.5 days. The ILS at 60 mg/kg/day [19] was 288% and the median survival time [20] was over 45 days.
